Experimental findings from ChEMBL document CHEMBL4184189, “Discovery of orally efficacious RORγt inverse agonists, part 1: Identification of novel phenylglycinamides as lead scaffolds” (Bioorg Med Chem, 2018) are described below.

Series [1] is described as follows: (§1) AUC (0 to 8 hrs) in mouse at 1 mg/kg, po administered as cassette dose. The arrangement: time < 8 hr, dose 1 mg/kg, route oral. The class given is ADME, organism-based. The conditions noted are these: in vivo.
Series [2] deals with Mus musculus. The series is described as §1. The class given is ADME, organism-based. The arrangement: time < 8 hr, dose 1 mg/kg, route oral. Particulars: in vivo, 8 h; call rule not given here.
In series [3] the test system is Mus musculus. Description: In vivo inverse agonist activity at RORgammat in Balb/c mouse assessed as inhibition of IL-23-induced IL-17a gene expression at 100 mg/kg, po administered 30 mins before and 8 hrs after IL-23 injection in ears intradermally measured after 24 hrs by qRT-PCR analysis relative to control. The class given is functional. In general terms: In qPCR the cycle at which signal appears reflects the starting amount.

Series [4] in a line: Cmax in mouse plasma at 100 mg/kg, po. The class given is ADME, organism-based. The arrangement: dose 100 mg/kg, route oral.
Series [5] in a line: Tmax in mouse plasma at 100 mg/kg, po. The class given is ADME, organism-based.
Series [6] is described as follows: AUC (0 to 24 hrs) in mouse plasma at 100 mg/kg, po. The class given is ADME, organism-based. The arrangement: dose 100 mg/kg, time < 24 hr, route oral.
Series [7] in a line: Drug uptake in Balb/c mouse plasma at 10 to 100 mg/kg, po. It is filed as ADME, organism-based. Particulars: in vivo.
A short description of series [8]: Drug uptake in po dosed Balb/c mouse ear. The conditions noted are these: in vivo. It is filed as ADME, organism-based.
Series [9] in a line: Drug uptake in po dosed Balb/c mouse ear after 8 hrs. It is filed as ADME, organism-based. Particulars: in vivo.
Series [10] concerns the target T1, Nuclear receptor ROR-gamma (Homo sapiens, UniProt P51449).
T1 sequence (P51449 whole entry): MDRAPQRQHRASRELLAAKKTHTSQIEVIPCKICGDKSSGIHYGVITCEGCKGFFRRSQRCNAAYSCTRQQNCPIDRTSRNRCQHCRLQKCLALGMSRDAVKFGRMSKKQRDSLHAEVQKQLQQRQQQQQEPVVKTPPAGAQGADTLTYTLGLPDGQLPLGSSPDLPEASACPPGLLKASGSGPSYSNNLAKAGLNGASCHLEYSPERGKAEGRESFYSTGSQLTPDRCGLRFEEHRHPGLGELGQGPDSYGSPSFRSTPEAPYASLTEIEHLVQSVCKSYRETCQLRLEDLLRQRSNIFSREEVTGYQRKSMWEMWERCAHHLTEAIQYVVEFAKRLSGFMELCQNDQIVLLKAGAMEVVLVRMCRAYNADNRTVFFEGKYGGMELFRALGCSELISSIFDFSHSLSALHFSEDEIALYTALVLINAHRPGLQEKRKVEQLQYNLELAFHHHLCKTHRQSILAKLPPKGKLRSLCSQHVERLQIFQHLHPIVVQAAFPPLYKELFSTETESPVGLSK
Description: Displacement of BODIPY-cholesterol from human His-tagged RORgammat after 20 mins by TR-FRET assay. (In general: TR-FRET usually uses a lanthanide donor and a delayed reading to cut background.)

Series [11] deals with T1, Nuclear receptor ROR-gamma. In words: Inverse agonist activity at RORgammat in human Jurkat cells assessed as inhibition of transcriptional activity after overnight incubation by human IL-17 ROR response element driven-bright-glo luciferase reporter gene assay. It is filed as cell-based. Background: In a reporter assay the amount or activity of a reporter protein is the signal.

Series [12] is filed under the species Homo sapiens. In words: Selectivity ratio of IC50 for RORbeta in human Jurkat cells to IC50 for RORgammat in human Jurkat cells. The class given is cell-based.
The species entered for series [13] is Homo sapiens. In words: Selectivity ratio of IC50 for RORalpha in human Jurkat cells to IC50 for RORgammat in human Jurkat cells. The class given is cell-based.
Series [14] concerns the target T2, Nuclear receptor ROR-gamma (Homo sapiens) (UniProt P51449).
T2 sequence (whole entry): T1 sequence (P51449 whole entry)
Description: Displacement of 25-[3H2]hydroxycholesterol from GST-tagged RORgammat (unknown origin) at 10 uM.

pIC50: −log10 of the molar value. Some results are limits rather than exact numbers.

In general, AUC(0-t) refers to the area under the concentration-time curve up to a stated or last time point. The low end stands for less exposure, the high end for more exposure. In turn, `COc1ccc(C(C(=O)Nc2ccc([Si](C)(C)C)cc2)N(C)C(=O)c2ccc(O)nc2)cc1` (racemic) gave an AUC(0-t) at 8 h in series [1] of 86 ng·h/mL.

In [1], `COc1ccc(C(C(=O)Nc2cc(F)c([Si](C)(C)C)c(F)c2)N(C)C(=O)c2cc(O)no2)cc1` (racemic) yielded an AUC(0-t) at 8 h of 1510 ng·h/mL.

One may read the AUC as concentration integrated over time. Lower therefore signals less exposure. For orientation: inhibition in vivo means the share of the control response that was lost under treatment. For orientation: Cmax means the peak of the concentration-time curve. For orientation: Tmax means the time at which the peak concentration occurs. In series [2], `COc1ccc([C@H](C(=O)Nc2cc(F)c([Si](C)(C)C)c(F)c2)N(C)C(=O)c2cc(O)no2)cc1` yielded an AUC of 370 ng·h/mL. Also, the inhibition in vivo at 100 mg/kg in [3] amounted to 71%. This molecule came in with a Cmax in [4] of 9120 ng/mL. Besides, the Tmax in series [5] was found to be 1 h. This molecule also came in with an AUC(0-t) at 24 h in series [6] of 47400 ng·h/mL. Further, the Drug uptake entry in series [7] is “Active”; in [8], “Dose-dependent effect and Tde”; in [9], “Active”.

What is called pIC50 is −log10 of the IC50, conventionally taken in molar units. Consider `COc1ccc(C(C(=O)N(C)c2ccc(C(C)(C)C)cc2)N(C)C(=O)c2ccc(=O)[nH]c2)cc1` (racemic), for which the pIC50 is less than 5.00 in series [10] and less than 4.52 in [11].

For `COc1ccc(C(CC(=O)Nc2ccc(C(C)(C)C)cc2)N(C)C(=O)c2ccc(=O)[nH]c2)cc1` (racemic), the pIC50 in series [10] was less than 5.00; in series [11], less than 4.52.

A word on the inhibition: it is how much of the control response was suppressed. Lower therefore signals a response near the control. As for `COc1ccc(C(C(=O)Nc2ccc(C(C)C)cc2)N(C)C(=O)c2ccc(O)nc2)cc1` (racemic), the Ratio IC50 in series [12] and in series [13] was greater than 15 each time. The pIC50 in [10] is 6.70; in series [11], 5.80. The inhibition in series [14] was determined as 93%.

With `COc1ccc(CC(C(=O)Nc2ccc(C(C)(C)C)cc2)N(C)C(=O)c2ccc(=O)[nH]c2)cc1` (racemic), the pIC50 in series [10] was less than 5.00; in [11], less than 4.52.

Regarding `COc1ccc(C(C(=O)Nc2ccc([Si](C)(C)C)cc2)N(C)C(=O)c2cc(O)no2)cc1` (racemic), the AUC(0-t) at 8 h in series [1] was 1590 ng·h/mL.
